Experimental data: the NIST ThermoML archive (doi:10.1021/acs.jced.7b00176)

What was measured:
[1] = Liquid, Vibrating tube method
[2] = xn = mol fraction of the nth substance listed; settings: Liquid, Vibrating tube method, x1 = 1

COCCOCCOC [2,5,8-trioxanonane]
[1]
Settings | mass density [kg/m3]
283.67 K, 40000 kPa | 978.49
283.67 K, 60000 kPa | 989.12
283.67 K, 80000 kPa | 998.75
283.67 K, 100000 kPa | 1007.71
283.68 K, 10000 kPa | 960.29
283.68 K, 20000 kPa | 966.68
283.68 K, 30000 kPa | 972.8
283.69 K, 100 kPa | 953.48
283.69 K, 1000 kPa | 954.15
283.69 K, 5000 kPa | 956.94
303.47 K, 100 kPa | 933.69
303.47 K, 1000 kPa | 934.43
303.48 K, 5000 kPa | 937.55
303.48 K, 10000 kPa | 941.31
303.49 K, 20000 kPa | 948.42
303.49 K, 30000 kPa | 955.17
303.49 K, 40000 kPa | 961.41
303.49 K, 60000 kPa | 973.02
303.5 K, 80000 kPa | 983.33
303.5 K, 100000 kPa | 992.97
322.62 K, 100 kPa | 914.41
322.62 K, 1000 kPa | 915.3
322.62 K, 5000 kPa | 918.77
322.62 K, 10000 kPa | 923.02
322.62 K, 20000 kPa | 930.99
322.62 K, 30000 kPa | 938.31
322.62 K, 40000 kPa | 945.16
322.62 K, 60000 kPa | 957.74
322.62 K, 80000 kPa | 968.98
322.62 K, 100000 kPa | 979.2
342.49 K, 100 kPa | 894.03
342.49 K, 1000 kPa | 894.98
342.49 K, 5000 kPa | 898.96
342.5 K, 10000 kPa | 903.66
342.5 K, 20000 kPa | 912.57
342.51 K, 30000 kPa | 920.68
342.51 K, 40000 kPa | 928.18
342.51 K, 60000 kPa | 941.77
342.51 K, 80000 kPa | 953.82
342.52 K, 100000 kPa | 964.68
362.51 K, 100 kPa | 873.45
362.51 K, 1000 kPa | 874.46
362.51 K, 5000 kPa | 879.02
362.52 K, 10000 kPa | 884.41
362.52 K, 20000 kPa | 894.33
362.52 K, 30000 kPa | 903.29
362.52 K, 40000 kPa | 911.53
362.53 K, 60000 kPa | 926.3
362.53 K, 80000 kPa | 939.26
362.53 K, 100000 kPa | 950.89

CCCCO [butan-1-ol] + COCCOCCOC
[2]
Settings | mass density [kg/m3]
283.63 K, 80 kPa | 817.19
283.63 K, 5000 kPa | 820.7
283.64 K, 1000 kPa | 817.88
283.64 K, 40000 kPa | 842.03
283.64 K, 60000 kPa | 852.39
283.64 K, 100000 kPa | 870.33
283.65 K, 30000 kPa | 836.43
283.65 K, 80000 kPa | 861.72
283.66 K, 10000 kPa | 824.01
283.66 K, 20000 kPa | 830.39
303.45 K, 100 kPa | 801.81
303.45 K, 1000 kPa | 802.54
303.46 K, 5000 kPa | 805.65
303.46 K, 10000 kPa | 809.35
303.47 K, 20000 kPa | 816.29
303.47 K, 30000 kPa | 822.84
303.47 K, 40000 kPa | 828.87
303.47 K, 60000 kPa | 839.95
303.48 K, 80010 kPa | 849.82
303.48 K, 100000 kPa | 858.94
323.25 K, 1000 kPa | 787.19
323.26 K, 100 kPa | 786.36
323.26 K, 5000 kPa | 790.63
323.27 K, 10000 kPa | 794.68
323.27 K, 20000 kPa | 802.33
323.27 K, 30000 kPa | 809.41
323.28 K, 40000 kPa | 816
323.28 K, 60000 kPa | 827.77
323.28 K, 80000 kPa | 838.31
323.28 K, 100000 kPa | 847.65
343.03 K, 100 kPa | 769.54
343.03 K, 1000 kPa | 770.45
343.04 K, 5000 kPa | 774.32
343.04 K, 10000 kPa | 778.88
343.05 K, 20000 kPa | 787.37
343.05 K, 30000 kPa | 795.06
343.05 K, 40000 kPa | 802.13
343.05 K, 60000 kPa | 814.83
343.05 K, 80000 kPa | 826.08
343.05 K, 100000 kPa | 836.2
362.68 K, 100 kPa | 752.67
362.68 K, 1000 kPa | 753.64
362.68 K, 30000 kPa | 781.04
362.69 K, 5000 kPa | 758.03
362.69 K, 10000 kPa | 763.16
362.69 K, 20000 kPa | 772.56
362.7 K, 40000 kPa | 788.67
362.7 K, 60000 kPa | 802.36
362.71 K, 80000 kPa | 814.44
362.71 K, 100000 kPa | 825.18

CCCCO [butan-1-ol]
[1]
Settings | mass density [kg/m3]
283.63 K, 80 kPa | 817.19
283.63 K, 5000 kPa | 820.7
283.64 K, 1000 kPa | 817.88
283.64 K, 40000 kPa | 842.03
283.64 K, 60000 kPa | 852.39
283.64 K, 100000 kPa | 870.33
283.65 K, 30000 kPa | 836.43
283.65 K, 80000 kPa | 861.72
283.66 K, 10000 kPa | 824.01
283.66 K, 20000 kPa | 830.39
303.45 K, 100 kPa | 801.81
303.45 K, 1000 kPa | 802.54
303.46 K, 5000 kPa | 805.65
303.46 K, 10000 kPa | 809.35
303.47 K, 20000 kPa | 816.29
303.47 K, 30000 kPa | 822.84
303.47 K, 40000 kPa | 828.87
303.47 K, 60000 kPa | 839.95
303.48 K, 80010 kPa | 849.82
303.48 K, 100000 kPa | 858.94
323.25 K, 1000 kPa | 787.19
323.26 K, 100 kPa | 786.36
323.26 K, 5000 kPa | 790.63
323.27 K, 10000 kPa | 794.68
323.27 K, 20000 kPa | 802.33
323.27 K, 30000 kPa | 809.41
323.28 K, 40000 kPa | 816
323.28 K, 60000 kPa | 827.77
323.28 K, 80000 kPa | 838.31
323.28 K, 100000 kPa | 847.65
343.03 K, 100 kPa | 769.54
343.03 K, 1000 kPa | 770.45
343.04 K, 5000 kPa | 774.32
343.04 K, 10000 kPa | 778.88
343.05 K, 20000 kPa | 787.37
343.05 K, 30000 kPa | 795.06
343.05 K, 40000 kPa | 802.13
343.05 K, 60000 kPa | 814.83
343.05 K, 80000 kPa | 826.08
343.05 K, 100000 kPa | 836.2
362.68 K, 100 kPa | 752.67
362.68 K, 1000 kPa | 753.64
362.68 K, 30000 kPa | 781.04
362.69 K, 5000 kPa | 758.03
362.69 K, 10000 kPa | 763.16
362.69 K, 20000 kPa | 772.56
362.7 K, 40000 kPa | 788.67
362.7 K, 60000 kPa | 802.36
362.71 K, 80000 kPa | 814.44
362.71 K, 100000 kPa | 825.18
